Source: the supplement of paper PMC10307832

Key:
Assay in all cases: relative viability (nuclei count vs DMSO), 5 days (fraction); higher = more cells survive
RO-3306 + Decitabine = compound: C1=CC2=C(C=CC(=C2)C=C3C(=O)NC(=NCC4=CC=CS4)S3)N=C1 [RO-3306] + Nc1ncn([C@H]2C[C@H](O)[C@@H](CO)O2)c(=O)n1 [Decitabine] (partner 2 µM)
In short: (§1)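 Relative viability divides the nuclei count in treated wells by that in vehicle wells. Lung cancer cell lines were seeded in 1536-well plates, dosed by pin tool the next day, and fixed and stained after 5 days in one step with final 0.05% Triton X-100, 1% formaldehyde and 1 ug/ml Hoechst. Dosing was a single drug or a fixed anchor-drug dose plus five library-drug doses (not always all listed) in √10 steps, and values are medians of duplicate plates imaged at 4×.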

RO-3306 + Foretinib = compound: C1=CC2=C(C=CC(=C2)C=C3C(=O)NC(=NCC4=CC=CS4)S3)N=C1 [RO-3306] + COc1cc2c(Oc3ccc(NC(=O)C4(C(=O)Nc5ccc(F)cc5)CC4)cc3F)ccnc2cc1OCCCN1CCOCC1 [Foretinib] (partner 0.25 µM)
In short: as §1

[1] = compound: O=S(=O)(c1ccccc1)N(CC(F)(F)F)c1ccc(C(O)(C(F)(F)F)C(F)(F)F)cc1 + NC(=O)Nc1cc(-c2cccc(F)c2)sc1C(=O)N[C@H]1CCCNC1 [AZD7762] (partner 0.2 µM)
In short: as §1

[2] = compound: O=S(=O)(c1ccccc1)N(CC(F)(F)F)c1ccc(C(O)(C(F)(F)F)C(F)(F)F)cc1 + C[C@@H](Oc1cc(-c2cnn(C3CCNCC3)c2)cnc1N)c1c(Cl)ccc(F)c1Cl [Crizotinib] (partner 1 µM)
In short: as §1

[3] = compound: O=S(=O)(c1ccccc1)N(CC(F)(F)F)c1ccc(C(O)(C(F)(F)F)C(F)(F)F)cc1 + CCNC(=O)c1noc(-c2cc(C(C)C)c(O)cc2O)c1-c1ccc(CN2CCOCC2)cc1 [Luminespib] (partner 0.01 µM)
In short: as §1

Cell Line	relative viability (RO-3306 + Decitabine; first compound 0.01 µM)	relative viability (RO-3306 + Decitabine; first compound 0.03162 µM)	relative viability (RO-3306 + Decitabine; first compound 0.1 µM)	relative viability (RO-3306 + Decitabine; first compound 0.3162 µM)	relative viability (RO-3306 + Decitabine; first compound 1 µM)	relative viability (RO-3306 + Foretinib; first compound 0.01 µM)	relative viability (RO-3306 + Foretinib; first compound 0.03162 µM)	relative viability (RO-3306 + Foretinib; first compound 0.1 µM)	relative viability (RO-3306 + Foretinib; first compound 0.3162 µM)	relative viability (RO-3306 + Foretinib; first compound 1 µM)	relative viability ([1]; first compound 0.8 µM)	relative viability ([1]; first compound 2.53 µM)	relative viability ([1]; first compound 8 µM)	relative viability ([2]; first compound 0.8 µM)	relative viability ([2]; first compound 2.53 µM)	relative viability ([2]; first compound 8 µM)	relative viability ([3]; first compound 0.8 µM)	relative viability ([3]; first compound 2.53 µM)	relative viability ([3]; first compound 8 µM)
201T	0.824	0.849	0.879	0.855	0.893	1.28	1.27	1.01	1.03	0.613	0.797	0.617	0.637	1	0.902	1	1.05	0.887	0.975
A549	0.284		0.245	0.254	0.36	1.1	0.891	1	0.883	0.818				0.884	0.74	0.703			
A-427	0.615	0.545	0.543	0.572	0.568	0.923	0.937	1.07	1.06	1.13	0.879	0.734	0.695	0.929	0.793	0.872	0.919	0.774	1.05
ABC-1	0.953	0.904	0.828	1.03	1.06	1.06	0.975	0.999	1.1	1.06	0.709	1.64	1.2	1.19	1.07	1.01	0.746	0.571	0.519
BEN	0.645	0.69	0.723	0.725	0.824	0.513	0.684	0.664	0.673	0.747	0.724	0.717	0.689	0.952	0.89	0.766	0.343	0.289	0.182
CAL-12T						1.18	1.06	1.16	1.07	1.23	0.482	0.566	0.522	0.708	0.417	0.477	0.38	0.251	0.354
COR-L23	0.342	0.405	0.487	0.446	0.394	0.958	0.941	0.966	1.13	1.08				0.644	0.472	0.597	0.953	0.728	0.628
COR-L 105	0.652	0.607	0.596	0.623	0.658	1.74	1.23	1.06	1.17	0.859				0.876	0.839	0.661	0.784	0.665	0.659
Calu-6						0.948	0.957	0.973	0.942	0.82				0.7	0.668	0.649			
ChaGo-K-1	0.514	0.508	0.521	0.476	0.363	0.849	0.783	0.868	0.816	0.702	0.952	0.888	0.791	1.31	1.07	0.613	0.573	0.719	0.706
